Test [1] concerns the target Anti-cotinine antibody (SEQ ID NO: 11 / SEQ ID NO: 12, rabbit variable region with human IgG1 Fc domain). The experiment in a line: Binding of anti-cotinine antibody to ARM compounds by SPR, Biacore T200, 37° C. (Example 202). The conditions noted are these: pH 7.4, rabbit variable region/human IgG1 Fc antibody captured on protein A. A digest of the protocol:
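Run at 37° C. in 10 mM HEPES pH 7.4, 150 mM NaCl, 0.005% P20, 1% DMSO. Compound titrated from 200 nM (five 3-fold steps) over protein A-captured antibody, with 200/2000 s association/dissociation. 1:1 kinetic fit gave kon, koff, Kd and residence time (1/koff); pKd averaged where runs repeated.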

Test [2] deals with T1, CHOK1 cells engineered to overexpress human CCR2 (Homo sapiens, UniProt P41597).
T1 construct: expressed in transfected cells; host or cells: CHOK1 cells
Nature of the test: Antibody dependent cellular cytotoxicity (ADCC) reporter assay (Example 199). To be noted: with anti-cotinine antibody SEQ ID NO: 11/12; CHOK1-human CCR2 target cells, Jurkat FcγRIIIa NFAT-luciferase reporter cells; 12-18 hours; read-out: ADCC Reporter Assay pEC50 (converted). It is filed as cell-based. A digest of the protocol:
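Potency is reported as pEC50 from a nonlinear fit, averaged over runs, using luciferase signal divided by that of compound-free wells. The readout comes from NFAT-luciferase Jurkat cells expressing FcγRIIIa, mixed for 12–18 h with human CCR2-overexpressing CHOK1 cells, 1 pM–10 μM ARM compound and 0.01–200 μg/mL Fc-enhanced anti-cotinine IgG1.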

Structures are written as SMILES. Values joined by “and” are separate entries in the source; they are usually repeats but may differ in a detail not shown here. Identical values can stand only once.

Consider `CC(C)N(C)[C@@H]1CC[C@H](N2CC[C@H](Nc3ncnc4ccc(C(F)(F)F)cc34)C2=O)[C@H](NC(=O)COCCOCCNC(=O)COCCNC(=O)CCNC(=O)[C@H]2CC(=O)N(C)[C@@H]2c2cccnc2)C1` [Example 74, (2S,3S)-N-(1-(((1R,2S,5R)-5-(isopropyl(methyl)amino)-2-((S)-2-oxo-3-((6-(trifluoromethyl)quinazolin-4-yl)amino)pyrrolidin-1-yl)cyclohexyl)amino)-1,10,16-trioxo-3,6,12-trioxa-9,15-diazaoctadecan-18-yl)-1-methyl-5-oxo-2-(pyridin-3-yl)pyrrolidine-3-carboxamide], for which, in test [1], the “pKd of Antibody for ARM Compound of Formula (I)” value (from here on “pKd of Antibody”) amounted to 9.091. For the same molecule, the EC50 in test [2] was 9.64 nM.

In the case of `CC(C)N(C)[C@@H]1CC[C@H](N2CC[C@H](Nc3ncnc4ccc(C(F)(F)F)cc34)C2=O)[C@H](NC(=O)[C@H]2CC[C@H](NC(=O)CCCO[C@H]3CC[C@@H](OCCNC(=O)[C@H]4CC(=O)N(C)[C@@H]4c4cccnc4)CC3)CC2)C1` [Example 4], the “pKd of Antibody” value in test [1] came to 9.526. In addition, the EC50 in test [2] is 6.3 nM and 2.79 nM and 4.89 nM.

For the molecule `CN1C(=O)C[C@H](C(=O)NCCOCC(=O)NCCOCC(=O)NCCOCCC(=O)N[C@@H]2C[C@H](NC(C)(C)C)CC[C@@H]2N2CC[C@H](Nc3ncnc4ccc(C(F)(F)F)cc34)C2=O)[C@H]1c1cccnc1` [Example 103], the “pKd of Antibody” value in test [1] amounted to 9.0985. In addition, in test [2], the EC50 is 1.56 nM and 0.577 nM.

`CC(C)N(C)[C@@H]1CC[C@H](N2CC[C@H](Nc3ncnc4ccc(C(F)(F)F)cc34)C2=O)[C@H](NC(=O)[C@H]2CC[C@H](NC(=O)CCCOCCCCOCCNC(=O)[C@H]3CC(=O)N(C)[C@@H]3c3cccnc3)CC2)C1` [Example 121, (2S,3S)-N-(2-(4-(4-(((1R,4r)-4-(((1R,2S,5R)-5-(Isopropyl(methyl)amino)-2-((S)-2-oxo-3-((6-(trifluoromethyl)quinazolin-4-yl)amino)pyrrolidin-1-yl)cyclohexyl)carbamoyl)cyclohexyl)amino)-4-oxobutoxy)butoxy)ethyl)-1-methyl-5-oxo-2-(pyridin-3-yl)pyrrolidine-3-carboxamide]: the “pKd of Antibody” value in test [1] worked out at 9.332. In addition, the EC50 in test [2] is 5.28 nM.

Turning to `CC(C)N(C)[C@@H]1CC[C@H](N2CC[C@H](Nc3ncnc4ccc(C(F)(F)F)cc34)C2=O)[C@H](NC(=O)[C@H]2CC[C@@H](NC(=O)CCO[C@H]3CC[C@H](OCCNC(=O)[C@H]4CC(=O)N(C)[C@@H]4c4cccnc4)CC3)CC2)C1` [Example 112, (2S,3S)-N-(2-(((1S,4S)-4-(3-(((1S,4S)-4-(((1R,2S,5R)-5-(Isopropyl(methyl)amino)-2-((S)-2-oxo-3-((6-(trifluoromethyl)quinazolin-4-yl)amino)pyrrolidin-1-yl)cyclohexyl)carbamoyl)cyclohexyl)amino)-3-oxopropoxy)cyclohexyl)oxy)ethyl)-1-methyl-5-oxo-2-(pyridin-3-yl)pyrrolidine-3-carboxamide], the “pKd of Antibody” value in test [1] turned out to be 9.343. The EC50 in test [2] was 0.398 nM.

For `CN1C(=O)C[C@H](C(=O)NCCO[C@H]2CC[C@@H](OCCCC(=O)N[C@H]3CC[C@H](C(=O)N[C@@H]4C[C@H](NC(C)(C)C)CC[C@@H]4N4CC[C@H](Nc5ncnc6ccc(C(F)(F)F)cc56)C4=O)CC3)CC2)[C@H]1c1cccnc1` [Example 2], the “pKd of Antibody” value in test [1] stood at 9.4775. In addition, in test [2], the EC50 is 5.06 nM.

As to `CC(C)N(C)[C@@H]1CC[C@H](N2CC[C@H](Nc3ncnc4ccc(C(F)(F)F)cc34)C2=O)[C@H](NC(=O)CCOCCOCCOCCNc2c(NCCCNC(=O)[C@H]3CC(=O)N(C)[C@@H]3c3cccnc3)c(=O)c2=O)C1` [compound 169], the “pKd of Antibody” value in test [1] amounted to 9.0085. The EC50 in test [2] is 1.05 nM.

Take `CC(C)N(C)[C@@H]1CC[C@H](N2CC[C@H](Nc3ncnc4ccc(C(F)(F)F)cc34)C2=O)[C@H](Nc2c(NCCOCCOCCOCCOCCOCCNC(=O)[C@H]3CC(=O)N(C)[C@@H]3c3cccnc3)c(=O)c2=O)C1` [Example 85, (2S,3S)-N-(17-((2-(((1R,2S,5R)-5-(Isopropyl(methyl)amino)-2-((S)-2-oxo-3-((6-(trifluoromethyl)quinazolin-4-yl)amino)pyrrolidin-1-yl)cyclohexyl)amino)-3,4-dioxocyclobut-1-en-1-yl)amino)-3,6,9,12,15-pentaoxaheptadecyl)-1-methyl-5-oxo-2-(pyridin-3-yl)pyrrolidine-3-carboxamide]: the “pKd of Antibody” value in test [1] was 9.6885. In addition, the EC50 in test [2] is 8.24 nM.

As to `CC(C)N(C)[C@@H]1CCC(N2CC[C@H](Nc3ncnc4ccc(C(F)(F)F)cc34)C2=O)[C@H](NC(=O)CCOCCOCCOCCOCCOCCOCCOCCOCCNC(=O)[C@H]2CC(=O)N(C)[C@@H]2c2cccnc2)C1` (some centres unmarked) [Example 42], the “pKd of Antibody” value in test [1] is 9.23. For the same molecule, the EC50 in test [2] is 0.398 nM.

Consider `CC(C)N(C)[C@@H]1CC[C@H](N2CC[C@H](Nc3ncnc4ccc(C(F)(F)F)cc34)C2=O)[C@H](NC(=O)[C@H]2CC[C@H](CNC(=O)CCCC(=O)NCCCOCCCNC(=O)[C@H]3CC(=O)N(C)[C@@H]3c3cccnc3)CC2)C1` [Example 20], for which the “pKd of Antibody” value in test [1] is on record as 8.8705. Moreover, the EC50 in test [2] was 0.0832 nM.

Regarding `CC(C)N(C)[C@@H]1CC[C@H](N2CC[C@H](Nc3ncnc4ccc(C(F)(F)F)cc34)C2=O)[C@H](NC(=O)[C@H]2CC[C@H](NC(=O)CCO[C@H]3CC[C@H](OCCNC(=O)[C@H]4CC(=O)N(C)[C@@H]4c4cccnc4)CC3)CC2)C1` [Example 113], the “pKd of Antibody” value in test [1] is reported as 9.767. In addition, the EC50 in test [2] is 4.82 nM and 8.17 nM.

With `CC(C)N(C)[C@@H]1CC[C@H](N2CC[C@H](Nc3ncnc4ccc(C(F)(F)F)cc34)C2=O)[C@H](NC(=O)COCCNC(=O)CCNC(=O)CCOCCOCCNC(=O)[C@H]2CC(=O)N(C)[C@@H]2c2cccnc2)C1` [Example 181, (2S,3S)-N-(1-(((1R,2S,5R)-5-(Isopropyl(methyl)amino)-2-((S)-2-oxo-3-((6-(trifluoromethyl)quinazolin-4-yl)amino)pyrrolidin-1-yl)cyclohexyl)amino)-1,7,11-trioxo-3,14,17-trioxa-6,10-diazanonadecan-19-yl)-1-methyl-5-oxo-2-(pyridin-3-yl)pyrrolidine-3-carboxamide], in test [1], the “pKd of Antibody” value came out at 9.1645. Moreover, the EC50 in test [2] was 0.675 nM.

Turning to `CC(C)N(C)[C@@H]1CC[C@H](N2CC[C@H](Nc3ncnc4ccc(C(F)(F)F)cc34)C2=O)[C@H](NC(=O)[C@H]2CC[C@@H](NC(=O)CCOCCNC(=O)CCCCNC(=O)[C@H]3CC(=O)N(C)[C@@H]3c3cccnc3)CC2)C1` [Example 198, (2S,3S)-N-(5-((2-(3-(((1S,4s)-4-(((1R,2S,5R)-5-(Isopropyl(methyl)amino)-2-((S)-2-oxo-3-((6-(trifluoromethyl)quinazolin-4-yl)amino)pyrrolidin-1-yl)cyclohexyl)carbamoyl)cyclohexyl)amino)-3-oxopropoxy)ethyl)amino)-5-oxopentyl)-1-methyl-5-oxo-2-(pyridin-3-yl)pyrrolidine-3-carboxamide], the “pKd of Antibody” value in test [1] is given as 9.3835. In addition, the EC50 in test [2] is 0.398 nM and 0.316 nM.

Take `CC(C)N(C)[C@@H]1CC[C@H](N2CC[C@H](Nc3ncnc4ccc(C(F)(F)F)cc34)C2=O)[C@H](NC(=O)[C@H]2C[C@H](NC(=O)CCOC[C@H]3CC[C@H](COCCNC(=O)[C@H]4CC(=O)N(C)[C@@H]4c4cccnc4)CC3)C2)C1` [Example 54]: the “pKd of Antibody” value in test [1] is 9.5515. For the same molecule, the EC50 in test [2] is 1 nM.

For the molecule `CC(C)N(C)[C@@H]1CC[C@H](N2CC[C@H](Nc3ncnc4ccc(C(F)(F)F)cc34)C2=O)[C@H](NC(=O)COCCNC(=O)[C@H]2CC[C@@H](NC(=O)CCOCCNC(=O)[C@H]3CC(=O)N(C)[C@@H]3c3cccnc3)CC2)C1` [Example 109], the “pKd of Antibody” value in test [1] was found to be 8.951. In test [2], the EC50 is 0.17 nM.

Regarding `CC(C)N(C)[C@@H]1CC[C@H](N2CC[C@H](Nc3ncnc4ccc(C(F)(F)F)cc34)C2=O)[C@H](NC(=O)[C@H]2C[C@@H](NC(=O)CCO[C@H]3CC[C@H](OCCNC(=O)[C@H]4CC(=O)N(C)[C@@H]4c4cccnc4)CC3)C2)C1` [Example 115], the “pKd of Antibody” value in test [1] was 9.363. Besides, in test [2], the EC50 is 0.408 nM and 0.305 nM.

Turning to `CC(C)N(C)[C@@H]1CC[C@H](N2CC[C@H](Nc3ncnc4ccc(C(F)(F)F)cc34)C2=O)[C@H](NC(=O)[C@H]2C[C@@H](NC(=O)CCOC[C@H]3CC[C@H](COCCNC(=O)[C@H]4CC(=O)N(C)[C@@H]4c4cccnc4)CC3)C2)C1` [Example 55], in test [1], the “pKd of Antibody” value is recorded as 9.4085. Further, the EC50 in test [2] is 0.377 nM.

As for `CC(C)N(C)[C@@H]1CC[C@H](N2CC[C@H](Nc3ncnc4ccc(C(F)(F)F)cc34)C2=O)[C@H](NC(=O)CCOCCNC(=O)[C@H]2CC[C@H](NC(=O)COCCNC(=O)[C@H]3CC(=O)N(C)[C@@H]3c3cccnc3)CC2)C1` [Example 108], the “pKd of Antibody” value in test [1] was found to be 8.9855. For the same molecule, the EC50 in test [2] was 0.0501 nM.

For the molecule `CC(C)N(C)[C@@H]1CC[C@H](N2CC[C@H](Nc3ncnc4ccc(C(F)(F)F)cc34)C2=O)[C@H](NC(=O)CCOCCOCCNC(=O)COCCNC(=O)CCNC(=O)[C@H]2CC(=O)N(C)[C@@H]2c2cccnc2)C1` [Example 75], in test [1], the “pKd of Antibody” value amounted to 9.103. Also, in test [2], the EC50 was 1.63 nM.

The values above are taken from US20250136722A1, “CYTOTOXICITY TARGETING CHIMERAS” (GLAXOSMITHKLINE INTELLECTUAL PROPERTY DEVELOPMENT LIMITED, priority 2021, published 2025).
